Laboratory results: patent US12194201B2, “Silica nanoparticle doped conductive polymer” (University of Pittsburgh—Of the Commonwealth System of …, priority 2019, dated 2025)
Values belong to the compound of their own block, whether it stands above or below them.

How the values were obtained:
[1] = tested on: sensory evoked neural activity recorded in barrel cortex; details: released from PEDOT/CNT films, rat barrel cortex; cited from earlier work
neural activity = assay: In vivo DNQX release from PEDOT/SNP coated carbon fiber electrode, GCaMP imaging; details: DNQX loaded PEDOT/SNP on carbon fiber electrode, reducing potential, GCaMP mouse
Excerpt: Next, we aimed to modulate cellular activity by release of the glutamate AMPA/Kainate receptor antagonist 6,7-dinitroquinoxaiine-2,3-dione (DNQX). DNQX is a small, negatively charged compound that blocks glutamate transmission. We have previously observed that DNQX may be loaded and electrically released from PEDOT/CNT films in vivo and produce a transient (<6 second) inhibition of sensory evoked neural activity recorded in barrel cortex of rats.^[9] In this study, DNQX release from PEDOT/SNP was assessed using a GCaMP mouse model. The GCaMP fluorescence is tied directly to intracellular calcium activity, such that when neurons fire action potentials, the calcium influx cause GCaMP to produce a bright green fluorescence. […]
All animal work was performed under the guidelines of the University of Pittsburgh Institutional Animal Care and Use Committee (IACUC). […] First, a 2-minute baseline was recorded. […] Following 10 cycles of stimulation, a final 2-minute baseline recording was performed Calculations of fluorescence are made by first masking the electrode. A background fluorescence was determined by averaging all frames together, allowing for representation of small time windows as the % change vs the background intensity as shown below.
The inter-pulse fluorescence was determined by Δf during the reducing voltage, and comparing this to the Δf during the prior oxidative voltage (V>−0.2).

[2] = K3[Fe(CN)6] reduction (Prussian blue) antioxidant assay of released melatonin
Method: 1 mL of solution was removed and added to 0.8 mL of water, followed by the addition of 200 μL of FeCl3(0.01%, 6 μM), creating a deep blue dye. The absorbance of the resulting solution was measured at 700 nm.

[3] = Dox release from PEDOT/SNP film into serum free DMEM; type: physicochemical
Method: (§1) Electrochemical methods of drug release may alter the activity of a compound due to the applied potentials, and it is therefore important to verify that the loading and release process doesn't compromise the drug's bioactivity. […] For Dox, a potent chemotherapeutic, release was performed for 0 (passive diffusion for 24 hours), 20, or 200 cycles into serum free DMEM. A small amount of diffusion release was observed from Dox loaded electrodes, as measured by absorbance at […]. […] Released Dox was introduced to cultured 3T3 mouse fibroblast cells (FIG. 7B) and the toxicity was compared to freshly prepared Dox solution at the same concentration. After a 3-day incubation period, the viability of the 3T3 cells was evaluated with the XTT assay. […] Therefore, even though we detected a minute amount of Dox in the diffusion control, this quantity is below the toxic level.
5 mg of mesoporous SNP were sonicated with 200 μl of drug solution for 20 minutes prior to the particles being collected by centrifuge and dried under vacuum.
5 mg of drug loaded particles were suspended in 3 ml of EDOT (0.01M) solution in water. Electropolymerization was carried out for 200 seconds on 2 mm diameter gold electrodes or 70 μm diameter Pt/Ir wires (A-M systems, 90/10 Pt/Ir). Electrodes were then washed with PBS on an orbital shaker for 2 hours then soaked overnight to remove any adsorbed drugs.

[4] = tested on: 3T3 mouse fibroblast cells; assay: 3T3 viability (XTT) after incubation with released Dox; type: cell-based; details: 3-day incubation
Method: as §1
XTT assay was performed as directed by the distributer. In brief, 2,3-Bis-(2-Methoxy-4-Nitro-5-Sulfophenyl)-2H-Tetrazolium-5-Carboxanilide (XTT, Invitrogen, 1 mg ml^−1) was added to culture media. 10 μl of phenazine methosulfate (PMS, 10 mM) was added to XTT/media solution (4 ml) just prior to the addition of XTT solution (50 uL) per well. Cells were incubated for 3 hours and the absorbance of the supernatant was measured at 450 nm. HAPI cells were imaged with a Live/Dead assay (Invitrogen). Supernatant solution was removed and replaced with 1/1000 dilutions for Propidium Iodide and Calcein AM in PBS. Cells were incubated for 1 hour and imaged with fluorescence microscopy.
Dox was loaded and released from PEDOT/SNP films as described above. 3T3 cells were cultured in 48 well plates for 2 days to reach semi-confluency, at which point the culture media was removed and replaced with serum-free media containing stock dox, released dox, or no dox. Cells were culture for 72 h, at which point the media was aspirated and the viability of the cells measured with XTT assay as described above.

[5] = tested on: highly aggressive proliferating immortalized (HAPI) microglia cells; assay: Live/Dead staining of cells on polymer substrate; type: cell-based; details: 2 days, Triton-X 0.2% positive control on TCPS
Method: A cytotoxicity assessment was performed on the PEDOT/SNP composite. Both PEDOT^[51] and silica nanoparticles^[40] have each been successfully employed in in vivo applications. However, small changes to the surface chemistry of the silica nanoparticle warrant investigation into the potential for adverse biological interactions. The commonly employed polymer PEDOT/PSS itself has been previously characterized as non-toxic;^[52] and was used as an ideal reference for the toxicity testing of the PEDOT/SNP. The biocompatibility of the PEDOT/SNP surface was evaluated by directly culturing highly aggressive proliferating immortalized (HAPI) microglia cells on the substrate. After 2 days, XTT was used to measure to metabolic activity of the cells. […] A small degree of auto-fluorescence is detectable for both polymer coatings, resulting in a slight amount of red and green background. […] Given these findings, we can expect that the PEDOT/SNP surface is safe and non-toxic for acute experimentation, while chronic biocompatibility should still be evaluated. […]
XTT assay was performed as directed by the distributer. […] Cells were incubated for 3 hours and the absorbance of the supernatant was measured at 450 nm. […] Cells were incubated for 1 hour and imaged with fluorescence microscopy.

[6] = Electrically controlled dye loading and release from PEDOT/SNP films in PBS; type: physicochemical
Excerpt: Drug loading and release from conducting polymers with electrical control offers a precise method for pharmacological delivery directly to the site of implantation on demand. Mesoporous SNP were employed for drug delivery due to their exceptionally high loading volume. Rhodamine and fluorescein were used as model drugs for quantifying drug release profile. Fluorescein has a negative charge while rhodamine-b is positively charged, and the combination of rhodamine and fluorescein allow for a better understanding of how oppositely charged compounds can be released from PEDOT/SNP films. The drug loading and release mechanism is depicted in FIG. 2. Nanoparticles were suspended in an aqueous solution of fluorescein, rhodamine, or a combination of both, and sonicated to encourage the entry of the dye into the pores. Loaded sulfonate nanoparticles are then collected from solution by centrifuge then resuspended in an aqueous solution of EDOT. PEDOT/SNP films are polymerized under constant current, producing a film of polymer gated silica nanoparticles. An immediate observation made was the ease of polymerization when the dye was loaded into SNPs prior to polymerization vs without SNPs, with electrode potential being substantially lower for electro-polymerization of drug loaded SNP (FIG. 11). After polymerization, electrodes coated with the dye-loaded composite were examined under a fluorescent microscope to observe the release in phosphate buffered saline (PBS) in real time (FIG. 12). A cyclic voltage sweep from 0.8V to −0.6V was used to trigger drug release from the coatings. We observed a halo of fluorescence surrounding the electrode upon stimulation, which dissipates within seconds of the end of stimulation.
We further quantified the amount of release over number of stimuli from PEDOT/SNP composite and compared the performance to a control group of PEDOT loaded with the dye directly without the mesoporous SNP. Control and SNP dopant groups were polymerized to the same charge density. […]

Compound: 6,7-dinitroquinoxaline-2,3-dione [DNQX]
duration of transient inhibition of sensory evoked neural activity [1]: < 6 s
GCaMP fluorescence intensity during DNQX release vs prior (neural activity): significant decrease

Compound: COc1ccc2[nH]cc(CCNC(C)=O)c2c1 [melatonin]
change in absorbance at 700 nm (antioxidant capacity) ([2]; melatonin released from PEDOT/SNP film): significant change in the absorbance
change in absorbance at 700 nm (antioxidant capacity) ([2]; stock melatonin): significant change in the absorbance

Dox released from PEDOT/SNP film ([3]; 20 stimulations): 1.44 μg cm^−2
Dox released from PEDOT/SNP film ([3]; 200 stimulations): 7.4 μg cm^−2
Compound: COc1cccc2c1C(=O)c1c(O)c3c(c(O)c1C2=O)C[C@@](O)(C(=O)CO)C[C@@H]3O[C@H]1C[C@H](N)[C@H](O)[C@H](C)O1 [Dox, Doxorubicin]
effect of released Dox vs concentration-matched stock Dox [4]: no difference
3T3 viability vs standard culture media ([4]; diffusion control (0 cycles, passive diffusion 24 hours)): No significant difference
3T3 viability vs control ([4]; released Dox from 20 stimulations): significantly reduced the viability
3T3 viability vs control ([4]; released Dox from 200 stimulations): significantly reduced the viability

Compound: Triton-X
Live dead staining of the cells on the substrate [5]: no viable cells

quantified fluorescent intensity during release vs after ([6]; PBS, cyclic voltage sweep 0.8V to −0.6V, dye-loaded PEDOT/SNP): significantly higher
dye release relative to control sample ([6]; over 9,000 (fluorescein) and 5,000 (rhodamine) stimulations, control PEDOT loaded with dye without SNP): substantial increase
Overall drug loading increase when SNP used as a reservoir ([6]; vs PEDOT loaded with the dye directly, same charge density): 16.8 ×
Compound: CCN(CC)c1ccc2c(-c3ccccc3C(=O)O)c3ccc(=[N+](CC)CC)cc-3oc2c1 [rhodamine, rhodamine-b]
